Laboratory results published in ChEMBL document CHEMBL5352401, “Novel cudraisoflavone J derivatives as potent neuroprotective agents for the treatment of Parkinson's disease via the activation of Nrf2/HO-1 signaling” (Eur J Med Chem, 2022).
Calls of active or inactive are those of the source. The calls are words filed in the database; no cut-off is given here.

What was measured:
[1] = tested on: PC-12; experiment: Neuroprotective activity against 6-OHDA-induced cytotoxicity in rat PC-12 cells at 30 uM for 4 hrs followed by exposure to 6-OHDA measured after 24 hrs by MTT assay; assay type: functional, cell-based; details: time 28.0 hrs
[2] = tested on: PC-12; experiment: Cytotoxicity in rat PC-12 cells assessed as cell viability measured at 30 uM for 24 hrs by MTT assay; assay type: functional, cell-based
[3] = tested on: PC-12; experiment: Neuroprotective activity against 6-OHDA-induced cytotoxicity in rat PC-12 cells for 4 hrs followed by exposure to 6-OHDA measured after 24 hrs by MTT assay; assay type: functional, cell-based; details: dose 0.1-30 µM, time 28.0 hrs
[4] = tested on: PC-12; experiment: Cytotoxicity in rat PC-12 cells assessed as cell viability incubated for 24 hrs by MTT assay; assay type: functional, cell-based; details: PC-12, 24 h
[5] = Neurotoxicity in rotenone induced at rat PC-12 cells assessed as cell viability at 30 uM pretreated for 4 hrs followed by rotenone addition measured after 24 hrs by MTT assay (reference value: 53.4 +/- 2.6%); assay type: toxicity, cell-based; details: time 28 hrs, read-out: Activity
[6] = Neurotoxicity in rotenone induced at rat PC-12 cells assessed as cell viability pretreated with compound for 4 hrs followed by rotenone addition measured after 24 hrs by MTT assay; assay type: toxicity, cell-based
[7] = tested on: Brain; experiment: Antioxidant activity in Fe2+/L-ascorbic acid induced Sprague-Dawley rat brain homogenate assessed as inhibition of lipid peroxide production measured at 100 uM after 60 mins by microplate reader method relative to control; assay type: functional, tissue-based
[8] = tested on: PC-12; experiment: Antiinflammatory activity in 6-OHDA-induced cytotoxicity in rat PC-12 cells assessed as reduction of ROS production pretreated at 10 to 30 uM for 4 hrs followed by 6-OHDA addition treated for 6 hrs measured after 1 hr of H2-DCFDA addition by measuring fluorescence; assay type: functional, cell-based; details: dose 10-30 µM, time 11.0 hrs
[9] = tested on: PC-12; experiment: Antiinflammatory activity in rotenone induced cytotoxicity in rat PC-12 cells assessed as reduction of ROS production pretreated at 10 to 30 uM for 4 hrs followed by rotenone addition treated for 6 hrs measured after 1 hr of H2-DCFDA addition by measuring fluorescence; assay type: functional, cell-based; details: dose 10-30 µM, time 11.0 hrs
[10] = tested on: PC-12; experiment: Antiinflammatory activity in 6-OHDA-induced cytotoxicity in rat PC-12 cells assessed as reduction of fluorescence signal pretreated at 10 to 30 uM for 4 hrs followed by 6-OHDA addition treated for 6 hrs measured after 1 hr of H2-DCFDA addition by spectrophotometric analysis; assay type: functional, cell-based; details: dose 10-30 µM, time 11.0 hrs
[11] = tested on: PC-12; experiment: Antiinflammatory activity in rotenone induced cytotoxicity in rat PC-12 cells assessed as reduction of fluorescence signal pretreated at 10 to 30 uM for 4 hrs followed by rotenone addition treated for 6 hrs measured after 1 hr of H2-DCFDA addition by spectrophotometric analysis; assay type: functional, cell-based; details: dose 10-30 µM, time 11.0 hrs
[12] = tested on: PC-12; experiment: Neuroprotective activity in rat PC-12 cells assessed as upregulation of HO-1 expression measured at 10 uM after 3 to 6 hrs by immunoblotting analysis; assay type: functional, cell-based; details: time 3-6 hrs
[13] = tested on: PC-12; experiment: Neuroprotective activity in rat PC-12 cells assessed as upregulation of HO-1 expression measured for 6 hrs by immunoblotting analysis; assay type: functional, cell-based; details: dose 1-30 µM
[14] = tested on: PC-12; experiment: Neuroprotective activity in rat PC-12 cells assessed as fold increase in upregulation of HO-1 expression measured at 30 uM for 6 hrs by immunoblotting analysis; assay type: functional
[15] = tested on: PC-12; experiment: Cytotoxicity in 6-OHDA induced rat PC-12 cells assessed as cell viability pretreated with ZnPP for 30 mins followed by compound addition at 10 uM for 4 hrs and measured after 24 hrs of […] addition by MTT assay; assay type: functional, cell-based; details: time 28.0 hrs
[16] = target: T1, Nuclear factor erythroid 2-related factor 2 (Rattus norvegicus) (UniProt O54968); experiment: Induction of Nrf2 nuclear translocation in rat PC12 cells at 10 uM for 3 hrs by Western blotting analysis; assay type: cell-based; details: PC-12, filed as activator
T1 sequence (whole entry): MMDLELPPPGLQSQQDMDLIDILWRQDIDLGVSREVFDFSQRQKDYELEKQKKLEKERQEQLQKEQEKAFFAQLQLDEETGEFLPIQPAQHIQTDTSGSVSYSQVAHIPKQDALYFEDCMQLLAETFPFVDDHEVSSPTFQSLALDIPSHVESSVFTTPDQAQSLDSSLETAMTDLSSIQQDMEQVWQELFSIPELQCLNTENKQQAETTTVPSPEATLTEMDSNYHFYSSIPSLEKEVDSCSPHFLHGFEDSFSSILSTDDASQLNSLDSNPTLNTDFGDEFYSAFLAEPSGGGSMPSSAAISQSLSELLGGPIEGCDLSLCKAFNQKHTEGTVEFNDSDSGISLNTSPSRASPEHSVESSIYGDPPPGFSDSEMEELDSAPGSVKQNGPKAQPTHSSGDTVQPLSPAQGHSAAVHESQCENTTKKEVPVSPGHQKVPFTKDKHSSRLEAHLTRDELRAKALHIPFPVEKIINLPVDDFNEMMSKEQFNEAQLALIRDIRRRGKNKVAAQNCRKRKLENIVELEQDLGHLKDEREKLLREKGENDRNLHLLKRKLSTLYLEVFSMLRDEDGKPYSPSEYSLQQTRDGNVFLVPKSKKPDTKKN

[17] = tested on: PC-12; experiment: Upregulation of HO-1 expression in si-RNA mediated Nrf2 knock down rat PC-12 cells measured by immunoblotting analysis; assay type: functional, cell-based
[18] = target: KEAP1/NRF2 (Rattus norvegicus) (UniProt O54968+P57790); experiment: Inhibition of Nrf2-Keap1 protein-protein interaction in rat PC-12 cells by Western blotting analysis; assay type: cell-based
[19] = target: T1, Nuclear factor erythroid 2-related factor 2 (Rattus norvegicus); experiment: Induction of Nrf2 nuclear translocation in rat PC12 cells assessed as increase in phosphorylation of ERK1 at 10 uM for 2 to 3 hrs by Western blotting analysis; assay type: cell-based; details: PC-12, filed as activator, time 2-3 hrs
[20] = target: T1, Nuclear factor erythroid 2-related factor 2 (Rattus norvegicus); experiment: Induction of Nrf2 nuclear translocation in rat PC12 cells assessed as increase in phosphorylation of ERK2 at 10 uM for 2 to 3 hrs by Western blotting analysis; assay type: cell-based; details: PC-12, filed as activator, time 2-3 hrs
[21] = target: T1, Nuclear factor erythroid 2-related factor 2 (Rattus norvegicus); experiment: Induction of Nrf2 nuclear translocation in rat PC12 cells assessed as increase in phosphorylation of JNK at 10 uM for 2 to 3 hrs by Western blotting analysis; assay type: cell-based; details: PC-12, filed as activator, time 2-3 hrs
[22] = target: T1, Nuclear factor erythroid 2-related factor 2 (Rattus norvegicus); experiment: Induction of Nrf2 nuclear translocation in rat PC12 cells assessed as increase in phosphorylation of AKT at 10 uM for 2 to 3 hrs by Western blotting analysis; assay type: cell-based; details: PC-12, filed as activator, time 2-3 hrs
[23] = target: T1, Nuclear factor erythroid 2-related factor 2 (Rattus norvegicus); experiment: Induction of Nrf2 nuclear translocation in rat PC12 cells assessed as change in phosphorylation of p38 MAPK level at 10 uM for 2 to 3 hrs by Western blotting analysis; assay type: cell-based; details: PC-12, time 2-3 hrs
[24] = target: T1, Nuclear factor erythroid 2-related factor 2 (Rattus norvegicus); experiment: Induction of Nrf2 nuclear translocation in rat PC12 cells assessed as increase in phosphorylation of ERK1 pretreated with U0126 for 2 hrs followed by compound addition at 10 uM for 2 to 3 hrs by Western blotting analysis; assay type: cell-based; details: PC-12, time 2-3 hrs
[25] = target: T1, Nuclear factor erythroid 2-related factor 2 (Rattus norvegicus); experiment: Induction of Nrf2 nuclear translocation in rat PC12 cells assessed as increase in phosphorylation of ERK2 pretreated with U0126 for 2 hrs followed by compound addition at 10 uM for 2 to 3 hrs by Western blotting analysis; assay type: cell-based; details: PC-12, time 2-3 hrs
[26] = target: T1, Nuclear factor erythroid 2-related factor 2 (Rattus norvegicus); experiment: Induction of Nrf2 nuclear translocation in rat PC12 cells assessed as increase in phosphorylation of JNK pretreated with SP600125 for 2 hrs followed by compound addition at 10 uM for 2 to 3 hrs by Western blotting analysis; assay type: cell-based; details: PC-12, time 2-3 hrs
[27] = target: T1, Nuclear factor erythroid 2-related factor 2 (Rattus norvegicus); experiment: Induction of Nrf2 nuclear translocation in rat PC12 cells assessed as increase in phosphorylation of Akt pretreated with LY294002 for 2 hrs followed by compound addition at 10 uM for 2 to 3 hrs by Western blotting analysis; assay type: cell-based; details: PC-12, time 2-3 hrs
[28] = target: T1, Nuclear factor erythroid 2-related factor 2 (Rattus norvegicus); experiment: Inhibition of Nrf2 nuclear translocation in rat PC12 cells assessed as increase in phosphorylation of p38 MAPK pretreated with SB203580 for 2 hrs followed by compound addition at 10 uM for 2 to 3 hrs by Western blotting analysis; assay type: cell-based; details: PC-12, time 2-3 hrs
[29] = tested on: PC-12; experiment: Reversal of upregulation of HO-1 in rat PC-12 cells pretreated with U0126 for 2 hrs followed by compound addition at 10 uM for 2 to 3 hrs by Western blotting analysis; assay type: functional, cell-based; details: time 2-3 hrs
[30] = tested on: PC-12; experiment: Reversal of upregulation of HO-1 in rat PC-12 cells pretreated with SP600125 for 2 hrs followed by compound addition at 10 uM for 2 to 3 hrs by Western blotting analysis; assay type: functional, cell-based; details: time 2-3 hrs
[31] = tested on: PC-12; experiment: Reversal of upregulation of HO-1 in rat PC-12 cells pretreated with LY294002 for 2 hrs followed by compound addition at 10 uM for 2 to 3 hrs by Western blotting analysis; assay type: functional, cell-based; details: time 2-3 hrs
[32] = tested on: PC-12; experiment: Cytotoxicity in rat PC-12 cells assessed as cell viability measured at 10 to 30 uM for 24 hrs by MTT assay; assay type: functional, cell-based; details: dose 10-30 µM
[33] = tested on: PC-12; experiment: Neuroprotective activity against 6-OHDA-induced cytotoxicity in rat PC-12 cells at 10 to 30 uM for 4 hrs followed by exposure to 6-OHDA measured after 24 hrs by MTT assay; assay type: functional, cell-based; details: dose 10-30 µM, time 28.0 hrs

COc1ccc(-c2coc3cc(O)c4c(c3c2=O)OC(C)(C)C=C4)cc1
Activity [1]: Active | Activity [2]: inactive | Activity [3]: Dose-Dependent Effect | IC50 [4]: 3.9 µM | viability at 30 µM [5]: ≤ 81.8% | IC50 [6]: 4.8 µM | inhibition [7]: 28.8% | Activity [8]: Active | Activity [9]: Active | Activity [10]: Active | Activity [11]: Active | Activity [12]: Active | Activity [13]: Dose-Dependent Effect | fold change (FC) [14]: 2 | Activity [15]: Active | Activity [16]: Active | Activity [17]: inactive | inhibition [18]: Active | Activity [19]: Active | Activity [20]: Active | Activity [21]: Active | Activity [22]: Active | Activity [23]: inactive | Activity [24]: inactive | Activity [25]: inactive | Activity [26]: inactive | Activity [27]: inactive | inhibition [28]: Active | Activity [29]: Active | Activity [30]: Active | Activity [31]: Active

CC1(C)Oc2c(c(O)cc3occ(-c4ccncc4)c(=O)c23)CC1O (stereo not drawn)
Activity [2]: Active

CC1(C)Oc2c(c(O)cc3occ(-c4cccc(OC(F)(F)F)c4)c(=O)c23)CC1O (stereo not drawn)
Activity [32]: Active

COc1cc(OC)cc(-c2coc3cc(O)c4c(c3c2=O)OC(C)(C)C(O)C4)c1 (stereo not drawn)
Activity [32]: inactive | Activity [33]: inactive

CC1(C)Oc2c(c(O)cc3occ(-c4cccs4)c(=O)c23)CC1O (stereo not drawn)
Activity [1]: inactive

COc1ccc(-c2coc3cc(O)c4c(c3c2=O)OC(C)(C)C(O)C4)c(OC)c1 (stereo not drawn)
Activity [32]: inactive | Activity [33]: inactive
